Values of other authors in patent US7419996B2, “Parenteral and oral formulations of benzimidazoles” (The University of Houston, priority 2003, dated 2008).
Read-outs that look alike come from different tables or passages of the source.

Test system: rodents

C[S+](C)[O-] [DMSO, dimethylsulfoxide]
LD50 (intravenously): 3.1 gm/kg | LD50 (orally): 7.92 gm/kg
